Results as given in US8697724B2, “Crystalline oxalate salts of a diamide compound” (Theravance, Inc., priority 2010, dated 2014).
Where a name gives a salt, the structure may show the parent alone.

Legend:
[1] = test system: methacholine (MCh)-induced bronchoconstriction; test: Einthoven assay: bronchoprotection against methacholine-induced bronchoconstriction; assay type: in vivo, rat; settings: male Sprague-Dawley rats, inhalation, 100 μg, at 24 h
Method: This assay measures the ability of a test compound to provide bronchoprotection against methacholine (MCh)-induced bronchoconstriction in a rat.
Male Sprague-Dawley rats (Harlan, Indianapolis, Ind.), weighing between 200 g and 350 g, were used for all studies.
Test compound or vehicle (sterile deionized water) were dosed by inhalation (IH) over a 10 min period in a pie shaped inhalation chamber (R+S Molds, San Carlos, Calif.) using 5 mL of dosing solution. Rats were exposed to an aerosol, which was generated from an LC Star Nebulizer Set Model 22F51 (PARI Respiratory Equipment, Inc. Midlothian, Va.) driven by Bioblend (5% CO2/95% atmospheric air) at a pressure of 22 psi. Rats were dosed with 100 μg of test compound unless otherwise indicated.
At predetermined time points, rats were anesthetized with an intraperitoneal (IP) injection of 120 mg/kg inactin (thiobutabarbital). A supplemental dose (40 mg/kg, IP) was administered if the animal responded to physical stimuli (e.g. toe pinch). The surgical site was shaved and a 1-2 cm midline incision of the ventral aspect of the neck was made. […]
Changes in VP were recorded using the Acknowledge Data Collection Software (Santa Barbara, Calif.). […] Changes in ventilation pressure (cm H2O) in treated animals are expressed as % inhibition of MCh response relative to control animals.

[2] = Differential scanning calorimetry (thermal stability); assay type: physicochemical; settings: DSC traces, 10° C./min
Method: Differential scanning calorimetry (DSC) was performed using a TA Instruments Model Q-100 module with a Thermal Analyst controller. Data were collected and analyzed using TA Instruments Thermal Solutions software. A sample of about 2 mg was accurately weighed into an aluminum pan with lid. The sample was evaluated using a linear heating ramp of 10° C./min from ambient temperature to approximately 300° C. The DSC cell was purged with dry nitrogen during use. Representative DSC traces for Form 1 and Form 2 are shown in FIG. 2 and FIG. 5, respectively.

[3] = Dynamic moisture sorption (DMS) assessment; assay type: physicochemical
Method: A dynamic moisture sorption (DMS) assessment (also known as a moisture sorption-desorption profile) was performed for a sample of Form 2 using a VTI atmospheric microbalance, SGA-100 system (VTI Corp., Hialeah, Fla. 33016). A sample size of approximately 10 mg was used and the humidity was set at the ambient value at the start of the analysis. A typical DMS analysis consisted of three scans: ambient to 5% relative humidity (RH), 5% RH to 90% RH, 90% RH to 5% RH at a scan rate of 5% RH/step. The mass was measured every two minutes and the RH was changed to the next value (+/−5% RH) when the mass of the sample was stable to within 0.01% for 5 consecutive points.

[4] = reversible moisture sorption/desorption profile

With CN(CCCCC(=O)Nc1ccc(CNC[C@H](O)c2ccc(O)c3[nH]c(=O)ccc23)cc1)C(=O)CCN1CCC(OC(=O)Nc2ccccc2-c2ccccc2)CC1 [Biphenyl-2-ylcarbamic Acid 1-(2-{[4-(4-{[(R)-2-hydroxy-2-(8-hydroxy-2-oxo-1,2-dihydroquinolin-5-yl)ethylamino]methyl}phenylcarbamoyl)-butyl]methylcarbamoyl}ethyl)piperidin-4-yl Ester Ditrifluoroacetic Acid Salt] the “% inhibition of MCh response” value [1] was “at least 40%”.
With CN(CCCCC(=O)Nc1ccc(CNC[C@H](O)c2ccc(O)c3[nH]c(=O)ccc23)cc1)C(=O)CCN1CCC(OC(=O)Nc2ccccc2-c2ccccc2)CC1 [Form 1, Biphenyl-2-ylcarbamic Acid 1-(2-{[4-(4-{[(R)-2-Hydroxy-2-(8-hydroxy-2-oxo-1,2-dihydroquinolin-5-yl)ethylamino]methyl}-phenylcarbamoyl)butyl]methylcarbamoyl}ethyl)piperidin-4-yl Ester Oxalate Isopropanol Solvate Salt (Form 1)] the thermal stability [2] was “excellent thermal stability”.
With CN(CCCCC(=O)Nc1ccc(CNC[C@H](O)c2ccc(O)c3[nH]c(=O)ccc23)cc1)C(=O)CCN1CCC(OC(=O)Nc2ccccc2-c2ccccc2)CC1 [Form 2, Biphenyl-2-ylcarbamic Acid 1-(2-{[4-(4-{[(R)-2-Hydroxy-2-(8-hydroxy-2-oxo-1,2-dihydroquinolin-5-yl)ethylamino]methyl}-phenylcarbamoyl)butyl]methylcarbamoyl}ethyl)piperidin-4-yl Ester Oxalate Hydrate Salt (Form 2)] the “change in physical form during moisture sorption and desorption (PXRD before and after DMS)” value ([3]; PXRD profiles before and after the DMS experiment) was “no change in physical form occurred”, the “weight gain (moisture sorption)” value ([3]; humidity range of 5% RH to 90% RH) was “about 1.6 weight %” and the deliquescence [3, 4] was “not deliquescent”. The hygroscopicity [3, 4] was “acceptable hygroscopicity”.
